Results reported in patent publication US6015879A, “Peptide and peptide analog protease inhibitors” (Sibia Neurosciences, Inc., priority 1995, dated 2000).
Non-standard residues stand in square brackets, D forms with d. Residues, ends and D or L forms follow the SMILES beside them. ξ: configuration not given here. *: point of attachment. Chg = N[CH](C(=O)O)C1CCCCC1; Nle = CCCC[CH](N)C(=O)O; Cbz = O=C(OCc1ccccc1)*; ξNle = CCCCC(N)C(=O)O; CHN2 = [N-]=[N+]=C*

Tested on: Aβ formation in HGB 717/Swed cells
Assay: Immunoblot assay for Aβ peptide (inhibition of Aβ formation)
Assay type: cell-based, Human
Details: overnight, relative to DMSO control

| Compound | % INHIBITION OF Aβ (concentration of 75 μM) [%] | % INHIBITION OF Aβ (concentration of 40 μM) [%] | other results |
| --- | --- | --- | --- |
| CCCCC(NC(=O)[C@H](CC(C)C)NC(=O)[C@H](CC(C)C)NC(C)=O)C(=O)C(F)(F)F (mixture of isomers) [Ac-L-L-Nl-(TFMK), (3SR)-N-Ac-L-Leu-L-Leu N-[3-(1,1,1-trifluoro-2-oxoheptyl)]amide] | 50 |  |  |
| CC(C)C[C@H](NC(=O)OCc1ccccc1)C(=O)N[C@@H](Cc1ccccc1)C(=O)NC(C=O)CC1CCCCC1 (mixture of isomers) [Cbz-L-F-Cha-(H), (2SR)-N-Cbz-L-Leu-L-Phe-DL-cyclohexylalaninal] |  | 100 |  |
| CCCCC(C#N)NC(=O)[C@H](CC(C)C)NC(=O)[C@H](CC(C)C)NC(C)=O (stereo partly drawn) [Ac-L-L-Nl-(CN), (2S)-N-Ac-L-Leu-L-Leu N-[2-(hexanenitrile)]amide] | 94 |  |  |
| CCCCC(C=O)NC(=O)C(CC(C)C)NC(=O)C1CCCN1C(=O)OCc1ccccc1 [Cbz-P-L-Nl-(H), N-Cbz-L-Pro-L-Leu-L-norleucinal] (Cbz-Pro-Leu-[Nle]-aldehyde; configuration not given here) |  | 80 |  |
| CCCCC(C=O)NC(=O)[C@H](CC(C)C)N(C)C(=O)[C@H](CC(C)C)NC(=O)OCc1ccccc1 (mixture of isomers) [Cbz-L-[CH3]-L-Nl-(H), N-Cbz-L-Leu-L-(methyl)Leu-DL-norleucinal] |  | 77 |  |
| CC(=O)NC(CC(C)C)C(=O)NC(CC(C)C)C(=O)NC(C=O)C1CCCCC1 [Ac-L-L-Chg-(H)] (Ac-Leu-Leu-[Chg]-aldehyde; configuration not given here) | 99 |  |  |
| CCCCC(C=O)NC(=O)[C@H](CC(C)C)NC(=O)[C@H](CC(C)C)NC(=O)OCC1c2ccccc2-c2ccccc21 (mixture of isomers) [Fmoc-L-L-Nl-(H), N-Fmoc-L-Leu-L-Leu-DL-norleucinal] |  |  | % INHIBITION OF Aβ (concentration of 50 μM): 89% |
| C=C(C)CC(C=O)NC(=O)[C@H](CC(C)C)NC(=O)[C@H](CC(C)C)NC(=O)OCc1ccccc1 (mixture of isomers) [Cbz-L-L-Lene-(H), (2SR)-N-Cbz-L-Leu-L-Leu N-[2-(4-methyl-4-pentenal)]amide] |  |  | % INHIBITION OF Aβ (concentration of 10 μM): 95% |
| CCCCC(NC(=O)[C@H](CC(C)C)NC(=O)[C@H](CC(C)C)NC(C)=O)C(=O)C=[N+]=[N-] (stereo partly drawn) [Ac-L-L-Nl-(DM), N-Ac-L-Leu-L-Leu-L-Nle-COCHN2] (Ac-Leu-Leu-[ξNle]-CHN2) | 87 |  |  |
| C=C(C)CC(C=O)NC(=O)[C@H](CC(C)C)NC(=O)[C@H](CC(C)C)OCc1ccccc1 (mixture of isomers) [2S-benzoxyvaleric-L-Lene-(H), (2SR)-N-[(2S)-2-benzoxy-4-methylpentanoyl]-L-Leu N-[2-(4-methyl-4-pentenal)]amide] |  | 85 |  |
| CC(=O)N[C@@H](CC(C)C)C(=O)N[C@@H](CC(C)C)C(=O)NC(C=O)CC1CCCCC1 (mixture of isomers) [Ac-L-L-Cha-(H), N-Ac-L-Leu-L-Leu-DL-cyclohexylalaninal] |  |  | % INHIBITION OF Aβ (concentration of 10 μM): 46% |
| CCCCC(C=O)N(C)C(=O)[C@H](CC(C)C)NC(=O)[C@H](CC(C)C)NC(=O)OCc1ccccc1 (mixture of isomers) [Cbz-L-L-[CH3]-Nl-(H), N-Cbz-L-Leu-L-Leu-DL-(methyl)norleucinal] |  | 97 |  |
| CC=CCC(C=O)NC(=O)[C@H](CC(C)C)NC(=O)[C@H](CC(C)C)NC(C)=O (mixture of isomers) [Ac-L-L-Nlene-(H), (2SR)-N-Ac-L-Leu-L-Leu N [2-(trans-4-hexenal)]amide] | 96 |  |  |
| C=C(C)CC(C=O)NC(=O)[C@H](Cc1ccccc1)NC(=O)[C@H](CC(C)C)NC(=O)OCc1ccccc1 (mixture of isomers) [Cbz-L-F-Lene-(H), (2SR)-N-Cbz-L-Leu-L-Phe-N-[2-(4-methyl-4-pentenal)]amide] |  |  | % INHIBITION OF Aβ (concentration of 10 μM): 69% |
